These molecules were tested against T1, human PAH with the R408W mutation (Homo sapiens, UniProt P00439, R408W) (assay: Cell Based Phenylalanine Flux Assay). Conditions: A375 cells expressing R408W PAH; 24 hrs with compound, then 20 μM sepiapterin and 800 μM 13C9,15N-Phenylalanine for 4 hours; 13C-Tyrosine in media by LC-MS; average where tested multiple times.
T1 construct: expressed in transfected cells
T1 sequence (P00439 1-452 R408W): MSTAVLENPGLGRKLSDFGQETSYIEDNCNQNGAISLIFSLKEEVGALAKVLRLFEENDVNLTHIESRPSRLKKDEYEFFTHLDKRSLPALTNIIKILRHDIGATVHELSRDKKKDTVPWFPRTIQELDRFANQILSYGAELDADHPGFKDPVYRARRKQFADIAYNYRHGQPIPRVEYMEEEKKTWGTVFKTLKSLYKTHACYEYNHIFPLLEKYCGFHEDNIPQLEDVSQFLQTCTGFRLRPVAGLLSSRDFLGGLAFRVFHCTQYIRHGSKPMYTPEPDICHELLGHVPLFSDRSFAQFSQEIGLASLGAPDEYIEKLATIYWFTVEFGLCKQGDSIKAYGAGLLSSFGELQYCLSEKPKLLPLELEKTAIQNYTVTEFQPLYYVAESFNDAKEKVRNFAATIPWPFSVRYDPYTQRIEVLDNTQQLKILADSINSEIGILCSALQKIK
Set-up: scale not given here
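Further: Ten-point dose curve from 2-fold serial dilutions, run in duplicate at 0.5% DMSO final, tracer step used 20 µM sepiapterin and 800 µM labeled phenylalanine.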

AC50 | SMILES
E, E | Cn1cnc(-c2nc(C(F)F)c(C(=O)N3CCc4[nH]cnc4C3c3cc4ccccn4n3)o2)c1 (stereo not shown)

Same assay, conditions: A375 cells expressing R408W PAH; 24 hrs with compound, then 20 μM sepiapterin and 800 μM 13C9,15N-Phenylalanine for 4 hours; 13C-Tyrosine in media by LC-MS; average where tested multiple times; read-out: AC50

SMILES | AC50 [µM]
COc1cccn2nc(C3c4nc[nH]c4CCN3C(=O)c3cc(C(C)(C)C)nn3C)cc12 (stereo not shown) | > 5
O=C(c1cnn(-c2ccccn2)c1Cl)N1CCc2[nH]cnc2[C@@H]1c1cc2ccccn2n1 (single isomer, unassigned) | > 5

Same assay, conditions: A375 cells expressing human R408W PAH; 24 hrs compound incubation; 13C-Tyrosine by LC-MS; average where tested multiple times; read-out: AC50

AC50 [µM] | SMILES
> 5 | Cn1cc(-c2nnc(C(=O)N3CCc4[nH]cnc4[C@@H]3c3cc4c(F)cccn4n3)o2)cn1 [Example 729, (R)-(4-(4-fluoropyrazolo[1,5-a]pyridin-2-yl)-6,7-dihydro-1H-imidazo[4,5-c]pyridin-5(4H)-yl)(5-(1-methyl-1H-pyrazol-4-yl)-1,3,4-oxadiazol-2-yl)methanone]
< 0.5 | Cc1cccn2nc([C@@H]3c4nc[nH]c4CCN3C(=O)c3nnc(-c4cccnc4)o3)cc12 [Example 894, (S)-(4-(4-methylpyrazolo [1,5-a]pyridin-2-yl)-6,7-dihydro-1H-imidazo[4,5-c]pyridin-5(4H)-yl)(5-(pyridin-3-yl)-1,3,4-oxadiazol-2-yl) methanone]
< 0.5 | C[C@H](O)c1nc(C(F)F)c(C(=O)N2CCc3[nH]cnc3[C@H]2c2cc3c(F)cccn3n2)o1 [Example 712, (4-(difluoromethyl)-2-((S)-1-hydroxyethyl)oxazol-5-yl)((S)-4-(4-fluoropyrazolo [1,5-a]pyridin-2-yl)-6,7-dihydro-1H-imidazo[4,5-c]pyridin-5(4H)-yl)methanone]
0.5 to 1 | O=C(c1nnc(-c2cnccn2)o1)N1CCc2[nH]cnc2[C@H]1c1cc2cccc(C(F)(F)F)n2n1 [Example 1361, (S)-(5-(pyrazin-2-yl)-1,3,4-oxadiazol-2-yl)(4-(7-(trifluoromethyl)pyrazolo [1,5-a]pyridin-2-yl)-6,7-dihydro-1H-imidazo[4,5-c]pyridin-5(4H)-yl)methanone]
< 0.5 | CC(C)(F)c1nnc(C(=O)N2CCc3[nH]cnc3[C@H]2c2cc3cccc(Cl)n3n2)o1 [Example 969, (S)-(4-(7-chloropyrazolo [1,5-a]pyridin-2-yl)-6,7-dihydro-1H-imidazo[4,5-c]pyridin-5(4H)-yl)(5-(2-fluoropropan-2-yl)-1,3,4-oxadiazol-2-yl)methanone]

Same assay, conditions: A375 cells expressing human R408W PAH; 24 hrs with compound, then sepiapterin and 13C9,15N-Phenylalanine for 4 hours; 13C-Tyrosine by LC-MS; average where tested multiple times; read-out: AC50

AC50 [µM] | SMILES
0.5 to 1 | Cc1ncccc1-c1nnc(N2CCc3[nH]cnc3[C@H]2c2cc3c(C(F)(F)F)cccn3n2)o1 [Example 2208, (S)-2-(2-methylpyridin-3-yl)-5-(4-(4-(trifluoromethyl)pyrazolo [1,5-a]pyridin-2-yl)-1,4,6,7-tetrahydro-5H-imidazo [4,5-c]pyridin-5-yl)-1,3,4-oxadiazole]
> 5 | Cc1cccc2cc([C@H]3c4nc[nH]c4CCN3c3nnc(-c4c(F)cccc4F)o3)nn12 [Example 2090, (R)-2-(2,6-difluorophenyl)-5-(4-(7-methylpyrazolo[1,5-a]pyridin-2-yl)-1,4,6,7-tetrahydro-5H-imidazo[4,5-c]pyridin-5-yl)-1,3,4-oxadiazole]
> 5 | O=C(c1nnc(-c2ccccn2)s1)N1CCc2[nH]cnc2[C@@H]1c1cc2c(F)cccn2n1 [Example 1969, (R)-(4-(4-fluoropyrazolo [1,5-a]pyridin-2-yl)-1,4,6,7-tetrahydro-5H-imidazo[4,5-c]pyridin-5-yl)(5-(pyridin-2-yl)-1,3,4-thiadiazol-2-yl) methanone]
1 to 5 | Cc1cccc(-c2nnc(C(=O)N3CCc4[nH]cnc4[C@@H]3c3cc4c(F)cccn4n3)o2)n1 [Example 1471, (R)-(4-(4-fluoropyrazolo [1,5-a]pyridin-2-yl)-6,7-dihydro-1H-imidazo[4,5-c]pyridin-5(4H)-yl)(5-(6-methylpyridin-2-yl)-1,3,4-oxadiazol-2-yl)methanone]
1 to 5 | Cc1cccn2nc([C@H]3c4nc[nH]c4CCN3C(=O)c3nnc(-c4ccn(C(F)(F)F)n4)o3)cc12 [Example 1479, (R)-(4-(4-methylpyrazolo [1,5-a]pyridin-2-yl)-6,7-dihydro-1H-imidazo[4,5-c]pyridin-5(4H)-yl)(5-(1-(trifluoromethyl)-1H-pyrazol-3-yl)-1,3,4-oxadiazol-2-yl)methanone]
< 0.5 | Cc1c(-c2nnc(C(=O)N3CCc4[nH]cnc4[C@H]3c3cc4c(OC(F)(F)F)cccn4n3)o2)cnn1C [Example 1684, (S)-(5-(1,5-dimethyl-1H-pyrazol-4-yl)-1,3,4-oxadiazol-2-yl)-(4-(4-(trifluoromethoxy)pyrazolo[1,5-a]pyridin-2-yl)-6,7-dihydro-1H-imidazo [4,5-c]pyridin-5(4H)-yl)methanone]
< 0.5 | O=C(c1nnc(-c2ccn(C(F)(F)F)n2)o1)N1CCc2[nH]cnc2[C@H]1c1cc2cccc(Cl)n2n1 [Example 1508, (S)-(4-(7-chloropyrazolo [1,5-a]pyridin-2-yl)-6,7-dihydro-1H-imidazo[4,5-c]pyridin-5(4H)-yl)(5-(1-(trifluoromethyl)-1H-pyrazol-3-yl)-1,3,4-oxadiazol-2-yl)methanone]
< 0.5 | O=C(c1nnc(C2CCC2)o1)N1CCc2[nH]cnc2[C@H]1c1cc2c(C(F)(F)F)cccn2n1 [Example 1519, (S)-(5-cyclobutyl-1,3,4-oxadiazol-2-yl)(4-(4-(trifluoromethyl)pyrazolo [1,5-a]pyridin-2-yl)-6,7-dihydro-1H-imidazo[4,5-c]pyridin-5(4H)-yl)methanone]
0.5 to 1 | Fc1cccn2nc([C@@H]3c4nc[nH]c4CCN3c3nnc(-c4cnccn4)o3)cc12 [Example 2159, (S)-2-(4-(4-fluoropyrazolo [1,5-a]pyridin-2-yl)-1,4,6,7-tetrahydro-5H-imidazo[4,5-c]pyridin-5-yl)-5-(pyrazin-2-yl)-1,3,4-oxadiazole]
1 to 5 | Cc1nnc(C(=O)N2CCc3[nH]cnc3[C@H]2c2cc3c(C4CC4)cccn3n2)o1 [Example 2494, (S)-(4-(4-cyclopropylpyrazolo [1,5-a]pyridin-2-yl)-1,4,6,7-tetrahydro-5H-imidazo [4,5-c]pyridin-5-yl)(5-methyl-1,3,4-oxadiazol-2-yl)methanone]
0.5 to 1 | FC(F)(F)c1cccn2nc([C@@H]3c4nc[nH]c4CCN3c3nnc(C4CC4)o3)cc12 [Example 1591, (S)-2-cyclopropyl-5-(4-(4-(trifluoromethyl)pyrazolo[1,5-a]pyridin-2-yl)-6,7-dihydro-1H-imidazo[4,5-c]pyridin-5(4H)-yl)-1,3,4-oxadiazole]
